This is an account of results in patent US20150133426A1, “SUBSTITUTED PYRROLOPYRIMIDINES” (BAYER PHARMA AKTIENGESELLSCHAFT, priority 2012, published 2015).

For this assay, the target named is T1, human full-length MKNK1 (Homo sapiens, UniProt Q9BUB5, T385D).
T1 construct: purchased Carna Biosciences 02-145; host or cells: insect cells, baculovirus expression system
T1 sequence (Q9BUB5 1-424 isoform Q9BUB5-2 T344D): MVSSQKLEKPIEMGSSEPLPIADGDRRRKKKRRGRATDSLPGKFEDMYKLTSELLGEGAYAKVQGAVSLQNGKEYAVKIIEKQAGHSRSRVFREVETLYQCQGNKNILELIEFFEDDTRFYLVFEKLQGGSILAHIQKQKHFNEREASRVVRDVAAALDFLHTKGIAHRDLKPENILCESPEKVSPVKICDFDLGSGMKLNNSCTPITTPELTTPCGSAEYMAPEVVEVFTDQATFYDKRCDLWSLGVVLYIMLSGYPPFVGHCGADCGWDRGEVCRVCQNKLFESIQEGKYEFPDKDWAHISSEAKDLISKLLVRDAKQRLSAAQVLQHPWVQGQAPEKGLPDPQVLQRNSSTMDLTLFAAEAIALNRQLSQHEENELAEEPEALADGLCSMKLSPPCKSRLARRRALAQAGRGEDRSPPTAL
Description: MKNK1 kinase high ATP assay (TR-FRET). The format is biochemical. The settings on record: high ATP (2 mM), 15 min preincubation with enzyme, GST-MKNK1 (T344D). The procedure, abridged:
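GST-tagged full-length human MKNK1 (aa 1-424, T344D), baculovirus-expressed, preincubated 15 min with compound, then reacted 30 min at 22 °C with 2 mM ATP and 0.06 µM biotinylated peptide (final).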
As usually defined, the IC50 is the concentration needed to halve the response being measured. Low values mean inhibition by little substance, high ones a need for much substance. Take `COc1cc2[nH]ncc2cc1Nc1ncnc2[nH]c3c(c12)CC(C(=O)NCc1cccc(C(F)(F)F)c1)CC3` (racemic) [Example 220, (RS)-4-[(6-Methoxy-1H-indazol-5-yl)amino]-N-[3-(trifluoromethyl)benzyl]-6,7,8,9-tetrahydro-5H-pyrimido[4,5-b]indole-6-carboxamide]: the midpoint of inhibition, the IC50, lay at 3 nM. This lies in the single-digit nanomolar range.
Next, `COc1cc2[nH]ncc2cc1Nc1ncnc2[nH]c3c(c12)CC(C(=O)N1CCN(C)CC1)CC3` (racemic) [Example 221, (RS)-{4-[(6-Methoxy-1H-indazol-5-yl)amino]-6,7,8,9-tetrahydro-5H-pyrimido[4,5-b]indol-6-yl}(4-methylpiperazin-1-yl)methanone]: 4 nM; `CN1CCN(C(=O)C2CCc3[nH]c4ncnc(Nc5ccc6[nH]c(=O)sc6c5)c4c3C2)CC1` (racemic) [Example 222, (RS)-6-({6-[(4-Methylpiperazin-1-yl)carbonyl]-6,7,8,9-tetrahydro-5H-pyrimido[4,5-b]indol-4-yl}amino)-1,3-benzothiazol-2(3H)-one]: 25 nM.
Then `CC(C)NC(=O)C1CCc2[nH]c3ncnc(Nc4ccc(F)cc4OC(C)C)c3c2C1` (racemic) [Example 223, (RS)-4-{[4-Fluoro-2-(propan-2-yloxy)phenyl]amino}-N-(propan-2-yl)-6,7,8,9-tetrahydro-5H-pyrimido[4,5-b]indole-6-carboxamide], with 53 nM; and `COc1ccc(Cl)cc1Nc1ncnc2[nH]c3c(c12)CC(C(=O)NC(C)C)CC3` (racemic) [Example 224, (RS)-4-[(5-Chloro-2-methoxyphenyl)amino]-N-(propan-2-yl)-6,7,8,9-tetrahydro-5H-pyrimido[4,5-b]indole-6-carboxamide], with 40 nM.
On to `CC(C)NC(=O)C1CCc2[nH]c3ncnc(Nc4cc(Cl)ccc4OC(C)C)c3c2C1` (racemic) [Example 225, (RS)-4-{[5-Chloro-2-(propan-2-yloxy)phenyl]amino}-N-(propan-2-yl)-6,7,8,9-tetrahydro-5H-pyrimido[4,5-b]indole-6-carboxamide], for which 1040 nM corresponded to half-maximal inhibition (IC50).
Then `COc1cc(Cl)c(Cl)cc1Nc1ncnc2[nH]c3c(c12)CC(C(=O)NC(C)C)CC3` (racemic) [Example 226, (RS)-4-[(4,5-Dichloro-2-methoxyphenyl)amino]-N-(propan-2-yl)-6,7,8,9-tetrahydro-5H-pyrimido[4,5-b]indole-6-carboxamide], with 19 nM; and `CC(C)NC(=O)C1CCc2[nH]c3ncnc(Nc4ccc5[nH]ncc5c4)c3c2C1` (racemic) [Example 227, (RS)-4-(1H-Indazol-5-ylamino)-N-(propan-2-yl)-6,7,8,9-tetrahydro-5H-pyrimido[4,5-b]indole-6-carboxamide], with 24 nM; and `CCOC(=O)CNC(=O)C1CCc2[nH]c3ncnc(Nc4ccc(F)cc4OCCO)c3c2C1` (racemic) [Example 228, (RS)-Ethyl N-[(4-{[4-fluoro-2-(2-hydroxyethoxy)phenyl]amino}-6,7,8,9-tetrahydro-5H-pyrimido[4,5-b]indol-6-yl)carbonyl]glycinate], with 51 nM.
Next, `O=C1OCCOc2cc(F)ccc2Nc2ncnc3[nH]c4c(c23)CC1CC4` (racemic) [Example 229, (RS)-11-Fluoro-1,3,4,7,8,14-hexahydro-5H-2,4-ethano-6,9-dioxa-1,14,15,17-tetraazabenzo[5,6]cyclotrideca[1,2,3-cd]inden-5-one]: 3540 nM.
Next, `CC(C)Oc1cc2[nH]ncc2cc1Nc1ncnc2[nH]c3c(c12)CC(C(=O)NCCCS(C)(=O)=O)CC3` (racemic) [Example 230, (RS)—N-[3-(Methylsulfonyl)propyl]-4-{[6-(propan-2-yloxy)-1H-indazol-5-yl]amino}-6,7,8,9-tetrahydro-5H-pyrimido[4,5-b]indole-6-carboxamide]: 1 nM.
`COCC1(OC)CCc2[nH]c3ncnc(Nc4cc5cn[nH]c5cc4OC(C)C)c3c2C1` (racemic) [Example 231, (RS)-6-Methoxy-6-(methoxymethyl)-N-[6-(propan-2-yloxy)-1H-indazol-5-yl]-6,7,8,9-tetrahydro-5H-pyrimido[4,5-b]indol-4-amine] displayed an IC50 of 50 nM.
Molecule `O=C(O)C1CCc2[nH]c3ncnc(Nc4ccc(Cl)c(Cl)c4)c3c2C1` (racemic) [Example 233, (RS)-4-[(3,4-Dichlorophenyl)amino]-6,7,8,9-tetrahydro-5H-pyrimido[4,5-b]indole-6-carboxylic acid] displayed an IC50 of 149 nM.
Consider `CC(C)Oc1ccc(Cl)cc1Nc1ncnc2[nH]c3c(c12)CC(C(=O)O)CC3` (racemic) [Example 234, (RS)-4-{[5-Chloro-2-(propan-2-yloxy)phenyl]amino}-6,7,8,9-tetrahydro-5H-pyrimido[4,5-b]indole-6-carboxylic acid], for which the midpoint of inhibition, the IC50, lay at 288 nM.
Next, `COc1ccc(Cl)cc1Nc1ncnc2[nH]c3c(c12)CC(C(=O)O)CC3` (racemic) [Example 235, (RS)-4-[(5-Chloro-2-methoxyphenyl)amino]-6,7,8,9-tetrahydro-5H-pyrimido[4,5-b]indole-6-carboxylic acid]: 159 nM; `O=C(O)C1CCc2[nH]c3ncnc(Nc4cc5[nH]c(=O)[nH]c5cc4Cl)c3c2C1` (racemic) [Example 237, (RS)-4-[(6-Chloro-2-oxo-2,3-dihydro-1H-benzimidazol-5-yl)amino]-6,7,8,9-tetrahydro-5H-pyrimido[4,5-b]indole-6-carboxylic acid]: 12300 nM.
Then `CC(C)Oc1cc(F)ccc1Nc1ncnc2[nH]c3c(c12)CCCC3` [Example 1, N-(4-Fluoro-2-isopropoxyphenyl)-6,7,8,9-tetrahydro-5H-pyrimido[4,5-b]indol-4-amine], with 43 nM; and `c1nc(Nc2ccc3[nH]ncc3c2)c2c3c([nH]c2n1)CCCC3` [Example 2, N-(1H-Indazol-5-yl)-6,7,8,9-tetrahydro-5H-pyrimido[4,5-b]indol-4-amine], with 27 nM; and `c1nc(Nc2ccc3[nH]ncc3c2)c2c3c([nH]c2n1)CCCCC3` [Example 3, N-(1H-Indazol-5-yl)-5,6,7,8,9,10-hexahydrocyclohepta[4,5]pyrrolo[2,3-d]pyrimidin-4-amine], with 45 nM.
Then `CC(C)Oc1cc(F)ccc1Nc1ncnc2[nH]c3c(c12)CCCCC3` [Example 4, N-(4-Fluoro-2-isopropoxyphenyl)-5,6,7,8,9,10-hexahydrocyclohepta[4,5]pyrrolo[2,3-d]pyrimidin-4-amine], with 258 nM; and `CC(C)Oc1cc(F)ccc1Nc1ncnc2[nH]c3c(c12)CN(Cc1ccccc1)CC3` [Example 8, 6-Benzyl-N-(4-fluoro-2-isopropoxyphenyl)-6,7,8,9-tetrahydro-5H-pyrido[3′,4′:4,5]pyrrolo[2,3-d]pyrimidin-4-amine], with 2940 nM.
Molecule `CC(C)Oc1cc(F)ccc1Nc1ncnc2[nH]c3c(c12)CC(F)(F)CC3` [Example 9, 6,6-Difluoro-N-(4-fluoro-2-isopropoxyphenyl)-6,7,8,9-tetrahydro-5H-pyrimido[4,5-b]indol-4-amine] returned an IC50 of 85 nM.
The molecule `FC1(F)CCc2[nH]c3ncnc(Nc4ccc5[nH]ncc5c4)c3c2C1` [Example 10, 6,6-Difluoro-N-(1H-indazol-5-yl)-6,7,8,9-tetrahydro-5H-pyrimido[4,5-b]indol-4-amine] displayed an IC50 of 24 nM. This IC50 lies about 3.5-fold lower than the previous one.
Then `CC(C)Oc1cc(F)ccc1Nc1ncnc2[nH]c3c(c12)CSCC3` [Example 11, N-(4-Fluoro-2-isopropoxyphenyl)-5,7,8,9-tetrahydrothiopyrano[3′,4′:4,5]pyrrolo[2,3-d]pyrimidin-4-amine], with 42 nM; and `c1ccc(CN2CCc3[nH]c4ncnc(Nc5ccc6[nH]ncc6c5)c4c3C2)cc1` [Example 24, 6-Benzyl-N-(1H-indazol-5-yl)-6,7,8,9-tetrahydro-5H-pyrido[3′,4′:4,5]pyrrolo[2,3-d]pyrimidin-4-amine], with 367 nM.
Then `c1nc(Nc2ccc3[nH]ncc3c2)c2c3c([nH]c2n1)CCC1(C3)OCCO1` [Example 27, N-(1H-Indazol-5-yl)-5′,7′,8′,9′-tetrahydrospiro[1,3-dioxolane-2,6′-pyrimido[4,5-b]indol]-4′-amine], with 51 nM; and `c1nc(Nc2ccc3[nH]ncc3c2)c2c3c([nH]c2n1)CCSC3` [Example 66, N-(1H-Indazol-5-yl)-5,7,8,9-tetrahydrothiopyrano[3′,4′:4,5]pyrrolo[2,3-d]pyrimidin-4-amine], with 43 nM.
Next, `c1nc(Nc2ccc3[nH]ncc3c2)c2c3c([nH]c2n1)CCC3` [Example 69, N-(1H-Indazol-5-yl)-5,6,7,8-tetrahydrocyclopenta[4,5]pyrrolo[2,3-d]pyrimidin-4-amine]: 507 nM; `CC(C)Oc1cc(F)ccc1Nc1ncnc2[nH]c3c(c12)CCC3` [Example 70, N-(4-Fluoro-2-isopropoxyphenyl)-5,6,7,8-tetrahydrocyclopenta[4,5]pyrrolo[2,3-d]pyrimidin-4-amine]: 48 nM.
In turn, `O=S1(=O)CCc2[nH]c3ncnc(Nc4ccc5[nH]ncc5c4)c3c2C1` [Example 83, N-(1H-Indazol-5-yl)-5,7,8,9-tetrahydrothiopyrano[3′,4′:4,5]pyrrolo[2,3-d]pyrimidin-4-amine 6,6-dioxide] came in with an IC50 of 62 nM.
Next, `CC(C)Oc1cc(F)ccc1Nc1ncnc2[nH]c3c(c12)CS(=O)(=O)CC3` [Example 84, N-(4-Fluoro-2-isopropoxyphenyl)-5,7,8,9-tetrahydrothiopyrano[3′,4′:4,5]pyrrolo[2,3-d]pyrimidin-4-amine 6,6-dioxide]: 82 nM; `COc1ccc(F)cc1Nc1ncnc2[nH]c3c(c12)CCCC3` [Example 108]: 126 nM; `Nc1cc(F)c([N+](=O)[O-])cc1Nc1ncnc2[nH]c3c(c12)CCCC3` [Example 109]: at least 20000 nM.
Next, `O=c1[nH]c2ccc(Nc3ncnc4[nH]c5c(c34)CCCC5)cc2[nH]c1=O` [Example 110]: 12200 nM; `Nc1ccc2c(c1)N(c1ncnc3[nH]c4c(c13)CCCC4)CC2` [Example 111]: 1100 nM.
